From patent publication US9695155B2, “Herbicidal substituted pyrimidinyloxy benzene compounds” (E. I. DU PONT DE NEMOURS AND COMPANY, priority 2013, dated 2017)

Columns and labels:
[1] = test system: large (Lg) crabgrass; experiment: Test A preemergence; format: in vivo, Digitaria sanguinalis; conditions: for Crabgrass, Large plant response rating: 500 g ai/ha, approx. 10 days
Procedure, shortened: (§1)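 Visual 0–100 rating (100 = complete control) taken about 10 d post-treatment relative to untreated checks. Preemergence: directed soil spray on sown loam/sand pots. Postemergence: seedlings 2–10 cm, 1–2 leaf. Non-phytotoxic solvent formulation with surfactant.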

[2] = test system: pigweed; experiment: Test A preemergence; format: in vivo, Amaranthus retroflexus; conditions: for Pigweed plant response rating: 0 to 100 scale, 0 no effect, 100 complete control, approx. 10 days; for Plant response rating, Pigweed: 125 g ai/ha, 0 to 100 scale where 0 is no effect and 100 is complete control
Procedure, shortened: as §1

[3] = test system: large (Lg) crabgrass; experiment: Test A postemergence; format: in vivo, Digitaria sanguinalis
Procedure, shortened: as §1

[4] = test system: giant foxtail; experiment: Test A postemergence; format: in vivo, Setaria faberii
Procedure, shortened: as §1

[5] = test system: pigweed; experiment: Test A postemergence; format: in vivo, Amaranthus retroflexus
Procedure, shortened: as §1

[6] = test system: blackgrass; experiment: Test C preemergence; format: in vivo, Alopecurus myosuroides; conditions: for Blackgrass plant response rating: preemergence; for Plant response rating, Blackgrass: Preemergence, 31 g ai/ha, scale 0 to 100, 0 no effect, 100 complete control
Procedure, shortened: (§2)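 Sown in loam/sand → sprayed pre-emergence; or grown to 1–4 leaves in peat mix → sprayed post-emergence. Same solvent/surfactant formulation both ways. Greenhouse 13–15 d. Score 0–100 visual.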

[7] = test system: giant foxtail; experiment: Test C preemergence; format: in vivo, Setaria faberii; conditions: for Foxtail, Giant plant response rating: preemergence; for Plant response rating, Foxtail, Giant: Preemergence, 31 g ai/ha, scale 0 to 100, 0 no effect, 100 complete control
Procedure, shortened: as §2

[8] = test system: johnsongrass; experiment: Test C preemergence; format: in vivo, Sorghum halepense; conditions: for Johnsongrass plant response rating: preemergence; for Plant response rating, Johnsongrass: Preemergence, 31 g ai/ha, scale 0 to 100, 0 no effect, 100 complete control
Procedure, shortened: as §2

[9] = test system: ragweed; experiment: Test C preemergence; format: in vivo, Ambrosia elatior; conditions: for Ragweed plant response rating: preemergence; for Plant response rating, Ragweed: Preemergence, 31 g ai/ha, scale 0 to 100, 0 no effect, 100 complete control
Procedure, shortened: as §2

[10] = test system: corn; experiment: Test C postemergence; format: in vivo, Zea mays
Procedure, shortened: as §2

[11] = test system: large (Lg) crabgrass; experiment: Test C postemergence; format: in vivo, Digitaria sanguinalis
Procedure, shortened: as §2

[12] = test system: johnsongrass; experiment: Test C postemergence; format: in vivo, Sorghum halepense
Procedure, shortened: as §2

[13] = test system: oilseed rape; experiment: Test C postemergence; format: in vivo, Brassica napus; conditions: for Plant response rating, Oilseed Rape: scale 0 to 100 (0 no effect, 100 complete control)
Procedure, shortened: as §2

[14] = test system: waterhemp; experiment: Test C postemergence; format: in vivo, Amaranthus rudis; conditions: for Plant response rating, Waterhemp: scale 0 to 100 (0 no effect, 100 complete control)
Procedure, shortened: as §2

[15] = test system: velvetleaf; experiment: Test C postemergence; format: in vivo, Abutilon theophrasti; conditions: for Plant response rating, Velvetleaf: scale 0 to 100 (0 no effect, 100 complete control)
Procedure, shortened: as §2

[16] = 1000 g ai/ha, 0 to 100 scale, 0 no effect, 100 complete control
[17] = 16 g ai/ha, scale 0 to 100 (0 no effect, 100 complete control)
[18] = 62 g ai/ha, scale 0 (no effect) to 100 (complete control)
[19] = 125 g ai/ha, scale 0 (no effect) to 100 (complete control)
[20] = 16 g ai/ha, postemergence, 0 is no effect, 100 is complete control
[21] = 125 g ai/ha, postemergence, visual rating, scale 0 to 100 (0 no effect, 100 complete control)
[22] = Postemergence, 62 g ai/ha, scale 0 to 100 (0 no effect, 100 complete control)
[23] = 125 g ai/ha, postemergence, visual rating
[24] = 125 g ai/ha, 0 to 100 scale where 0 is no effect and 100 is complete control
[25] = 0 to 100 scale, 0 no effect, 100 complete control
[26] = 500 g ai/ha, 0 to 100 scale where 0 is no effect and 100 is complete control
[27] = 16 g ai/ha, postemergence, visual rating, scale 0 to 100 (0 no effect, 100 complete control), 13 to 15 days
[28] = Postemergence, 31 g ai/ha, scale 0 to 100 (0 no effect, 100 complete control), 13 to 15 days
[29] = Postemergence, 31 g ai/ha, 13 to 15 days
[30] = 250 g ai/ha, scale 0 (no effect) to 100 (complete control)

SMILES: N#Cc1cn(-c2c(Br)cccc2Oc2ncc(Cl)cn2)nn1 [Compound 116]
- Plant response rating, Crabgrass, Large [1, 16]: 100
- Pigweed plant response rating ([2]; 1000 g ai/ha): 100
- Plant response rating, Crabgrass, Large [3, 16]: 100
- Plant response rating, Foxtail, Giant [4, 16]: 90
- Plant response rating, Pigweed [5, 16]: 100
- Blackgrass plant response rating [6, 17]: 0
- Blackgrass plant response rating [6, 18]: 60
- Blackgrass plant response rating [6, 19]: 85
- Plant response rating, Blackgrass [6]: 10
- Foxtail, Giant plant response rating [7, 17]: 0
- Foxtail, Giant plant response rating [7, 18]: 85
- Foxtail, Giant plant response rating [7, 19]: 95
- Plant response rating, Foxtail, Giant [7]: 10
- Johnsongrass plant response rating [8, 17]: 0
- Johnsongrass plant response rating [8, 18]: 55
- Johnsongrass plant response rating [8, 19]: 70
- Plant response rating, Johnsongrass [8]: 25
- Ragweed plant response rating [9, 17]: 0
- Ragweed plant response rating [9, 18]: 45
- Ragweed plant response rating [9, 19]: 45
- Plant response rating, Ragweed [9]: 5
- Plant response rating (0 to 100), Corn [10, 20]: 0
- Plant response rating, Corn [10, 21]: 5
- Plant response rating, Corn [10, 22]: 5
- Plant response rating (0 to 100), Crabgrass, Large [11, 20]: 5
- Plant response rating, Crabgrass, Large [11, 21]: 30
- Plant response rating, Crabgrass, Large [11, 22]: 15
- Plant response rating (0 to 100), Johnsongrass [12, 20]: 0
- Plant response rating, Johnsongrass [12, 21]: 15
- Plant response rating, Johnsongrass [12, 22]: 0
- Plant response rating (0 to 100), Oilseed Rape [13, 20]: 5
- Plant response rating, Oilseed Rape [13, 23]: 40
- Plant response rating, Oilseed Rape ([13]; Postemergence, 62 g ai/ha): 10
- Plant response rating (0 to 100), Waterhemp [14, 20]: 65
- Plant response rating, Waterhemp [14, 23]: 95
- Plant response rating, Waterhemp ([14]; Postemergence, 62 g ai/ha): 80
- Plant response rating (0 to 100), Velvetleaf [15, 20]: 25
- Plant response rating, Velvetleaf [15, 23]: 85
- Plant response rating, Velvetleaf ([15]; Postemergence, 62 g ai/ha): 60

SMILES: CCOc1cnn(-c2c(C#N)cccc2Oc2ncc(Cl)cn2)c1 [Compound 92]
- Plant response rating, Crabgrass, Large [1, 24]: 100
- Crabgrass, Large plant response rating [1, 25]: 100
- Plant response rating, Pigweed [2]: 100
- Pigweed plant response rating ([2]; 500 g ai/ha): 100
- Plant response rating, Crabgrass, Large [3, 24]: 80
- Plant response rating, Crabgrass, Large [3, 26]: 90
- Plant response rating, Foxtail, Giant [4, 24]: 80
- Plant response rating, Foxtail, Giant [4, 26]: 90
- Plant response rating, Pigweed [5, 24]: 100
- Plant response rating, Pigweed [5, 26]: 100
- Blackgrass plant response rating [6, 17]: 0
- Blackgrass plant response rating [6, 18]: 70
- Blackgrass plant response rating [6, 19]: 90
- Plant response rating, Blackgrass [6]: 5
- Foxtail, Giant plant response rating [7, 17]: 30
- Foxtail, Giant plant response rating [7, 18]: 100
- Foxtail, Giant plant response rating [7, 19]: 100
- Plant response rating, Foxtail, Giant [7]: 98
- Johnsongrass plant response rating [8, 17]: 0
- Johnsongrass plant response rating [8, 18]: 70
- Johnsongrass plant response rating [8, 19]: 85
- Plant response rating, Johnsongrass [8]: 5
- Ragweed plant response rating [9, 17]: 10
- Ragweed plant response rating [9, 18]: 50
- Ragweed plant response rating [9, 19]: 85
- Plant response rating, Ragweed [9]: 5
- Corn plant response rating [10, 27]: 5
- Plant response rating (0 to 100), Corn ([10]; 125 g ai/ha, postemergence): 5
- Plant response rating, Corn [10, 28]: 5
- Plant response rating, Corn [10, 22]: 5
- Crabgrass, Large plant response rating [11, 27]: 5
- Plant response rating (0 to 100), Crabgrass, Large ([11]; 125 g ai/ha, postemergence): 10
- Plant response rating, Crabgrass, Large [11, 28]: 5
- Plant response rating, Crabgrass, Large [11, 22]: 5
- Johnsongrass plant response rating [12, 27]: 0
- Plant response rating (0 to 100), Johnsongrass ([12]; 125 g ai/ha, postemergence): 5
- Plant response rating, Johnsongrass [12, 28]: 0
- Plant response rating, Johnsongrass [12, 22]: 5
- Plant response rating (0 to 100), Oilseed Rape ([13]; 125 g ai/ha, postemergence): 70
- Plant response rating, Oilseed Rape [13, 29]: 45
- Plant response rating, Oilseed Rape ([13]; Postemergence, 62 g ai/ha): 60
- Plant response rating (0 to 100), Waterhemp ([14]; 125 g ai/ha, postemergence): 80
- Plant response rating, Waterhemp [14, 29]: 45
- Plant response rating, Waterhemp ([14]; Postemergence, 62 g ai/ha): 75
- Plant response rating (0 to 100), Velvetleaf ([15]; 125 g ai/ha, postemergence): 60
- Plant response rating, Velvetleaf [15, 29]: 45
- Plant response rating, Velvetleaf ([15]; Postemergence, 62 g ai/ha): 50

SMILES: N#Cc1cccc(Oc2ncc(F)cn2)c1-n1cc(Cl)cn1 [Compound 73]
- Plant response rating, Crabgrass, Large [1, 24]: 100
- Crabgrass, Large plant response rating [1, 25]: 100
- Plant response rating, Pigweed [2]: 100
- Pigweed plant response rating ([2]; 500 g ai/ha): 100
- Plant response rating, Crabgrass, Large [3, 24]: 90
- Plant response rating, Crabgrass, Large ([3]; 500 g ai/ha, 0 to 100 scale, 0 no effect, 100 complete control): 100
- Plant response rating, Foxtail, Giant [4, 24]: 90
- Plant response rating, Foxtail, Giant [4, 26]: 100
- Plant response rating, Pigweed [5, 24]: 100
- Plant response rating, Pigweed [5, 26]: 100
- Blackgrass plant response rating [6, 18]: 80
- Blackgrass plant response rating [6, 19]: 90
- Blackgrass plant response rating [6, 30]: 90
- Plant response rating, Blackgrass [6]: 0
- Foxtail, Giant plant response rating [7, 18]: 100
- Foxtail, Giant plant response rating [7, 19]: 100
- Foxtail, Giant plant response rating [7, 30]: 100
- Plant response rating, Foxtail, Giant [7]: 85
- Johnsongrass plant response rating [8, 18]: 35
- Johnsongrass plant response rating [8, 19]: 75
- Johnsongrass plant response rating [8, 30]: 98
- Plant response rating, Johnsongrass [8]: 10
- Ragweed plant response rating [9, 18]: 75
- Ragweed plant response rating [9, 19]: 85
- Ragweed plant response rating [9, 30]: 85
- Plant response rating (0 to 100), Corn ([10]; 125 g ai/ha, postemergence): 10
- Plant response rating (0 to 100), Corn ([10]; 250 g ai/ha, postemergence): 10
- Plant response rating, Corn [10, 28]: 5
- Plant response rating, Corn [10, 22]: 5
- Plant response rating (0 to 100), Crabgrass, Large ([11]; 125 g ai/ha, postemergence): 10
- Plant response rating (0 to 100), Crabgrass, Large ([11]; 250 g ai/ha, postemergence): 20
- Plant response rating, Crabgrass, Large [11, 28]: 5
- Plant response rating, Crabgrass, Large [11, 22]: 10
- Plant response rating (0 to 100), Johnsongrass ([12]; 125 g ai/ha, postemergence): 5
- Plant response rating (0 to 100), Johnsongrass ([12]; 250 g ai/ha, postemergence): 25
- Plant response rating, Johnsongrass [12, 28]: 0
- Plant response rating, Johnsongrass [12, 22]: 5
- Plant response rating (0 to 100), Oilseed Rape ([13]; 125 g ai/ha, postemergence): 60
- Plant response rating (0 to 100), Oilseed Rape ([13]; 250 g ai/ha, postemergence): 80
- Plant response rating, Oilseed Rape [13, 29]: 10
- Plant response rating, Oilseed Rape ([13]; Postemergence, 62 g ai/ha): 30
- Plant response rating (0 to 100), Waterhemp ([14]; 125 g ai/ha, postemergence): 75
- Plant response rating (0 to 100), Waterhemp ([14]; 250 g ai/ha, postemergence): 90
- Plant response rating, Waterhemp [14, 29]: 50
- Plant response rating, Waterhemp ([14]; Postemergence, 62 g ai/ha): 60
- Plant response rating (0 to 100), Velvetleaf ([15]; 125 g ai/ha, postemergence): 50
- Plant response rating (0 to 100), Velvetleaf ([15]; 250 g ai/ha, postemergence): 70
- Plant response rating, Velvetleaf [15, 29]: 30
- Plant response rating, Velvetleaf ([15]; Postemergence, 62 g ai/ha): 30
